Values quoted from earlier work as cited in patent US20110184060A1, “ORAL DOSAGE FORMS HAVING A HIGH LOADING OF A TRANEXAMIC ACID PRODRUG” (XenoPort, Inc., priority 2010, published 2011).
Where two headings read alike, the source gives them in different places.

How the values were obtained:
[1] = not given; remark: listed apart in the source
[2] = statement in words, no data given
[3] = human subjects, prodrug

NC[C@H]1CC[C@H](C(=O)O)CC1 [tranexamic acid, trans-4-(aminomethyl)-cyclohexanecarboxylic acid]
reduction of post-operative bleeding (cardiopulmonary bypass surgery, prophylactic administration of lysine analogs such as tranexamic acid): 30-40%
reduction of total blood loss (subjects undergoing total knee arthroplasty, prophylactic administration): up to 50%
oral bioavailability ([1]; oral tranexamic acid): about 30%
terminal elimination half life ([1]; tranexamic acid): about 2 hours

CC(OC(=O)NC[C@H]1CC[C@H](C(=O)O)CC1)OC(=O)C(C)C (stereo partly drawn) [Compound (1), 4-({[(2-methylpropanoyloxy)ethoxy]carbonylamino}methyl)cyclohexanecarboxylic acid]
oral bioavailability of tranexamic acid [2]: high oral bioavailability of tranexamic acid

CCOC(=O)OC(C)OC(=O)[C@H]1CC[C@H](CN)CC1 (relative stereo) [Kabi 2161, 1-(ethoxycarbonyl)oxyethyl trans-4-(aminomethyl)-cyclohexane carboxylate]
oral bioavailability of tranexamic acid [3]: improved oral bioavailability of tranexamic acid
